Structures are written as SMILES.

Holding throughout (assay type): cell-based, C57BL/6 mice
Experiment [1] concerns mature PC (CD24-mid & LYZ+) and secretory precursor (CD24-hi) populations. Description: Flow cytometry profiling of organoids in 2.5-D (CD24, LYZ). Conditions: 6-day ENR+CD+treatment, fraction of viable cells, n=3 bio. donors. (In general: Flow cytometry measures light scatter and fluorescence of single cells or particles in a stream.)
Excerpt: Cells processed for flow cytometry were first gated to exclude potential debris or doublets (via widely accepted forward and side scatter gating), and subsequently gated for viability (via Zombie-violet viability dye exclusion), all viable cells were considered for CD24 & LYZ expression analysis. […] For flow cytometry profiling of the 6 validate small molecules, ISC-enriched ‘small clusters’ in 3D Matrigel culture were passaged to a “2.5D” 96-well plate culture system for six days of ENR, or ENR+CD+drug culture in the same manner as described previously with the exception of plating in 96-well plates prepared with a polymerized 70% Matrigel coating in each well. Plates were centrifuged at 50 g for 1 min at 4° C. to allow for cells to partially embed in Matrigel coating. Drugs were pinned into their respective wells using the Tecan from a drug stamp plate. Media was changed at day three, including pinning of the drug treatments. At day six, cells were washed 3× with basal media, then harvested from Matrigel by mechanical disruption in TrypLE Express to remove Matrigel and dissociate organoids to single cells. After vigorous pipetting and incubation at 37° C. for 20 mins, dissociated organoids were strained through a 96-well filter plate with a 30-40 μm filter (Pall) into an ultra low-bind 96-well plate (Costar) by centrifuging at 300×g for 3 mins at 4° C. The cell filtrate was centrifuged again at 300×g for 3 mins at 4° C. to pellet the cells. Cell pellets were resuspended in FACS buffer (2% FBS in PBS0), then transferred to an ultra low-bind 96-well plate for flow prep. Cells were stained with Zombie-violet viability dye (BioLegend) at 100× for viability staining and/or antibody staining solution. FITC-conjugated antibody for lysozyme and APC-conjugated antibody for CD24 were used at 100× dilution (BioLegend). Flow cytometry was performed using a LSR Fortessa (BD; Koch Institute Flow Cytometry Core at MIT). Flow cytometry data was analyzed using FlowJo X v10.1 software.
In experiment [2] the test system is conventional organoid (ENR). Description: 384-well screen in conventional organoid (ENR), secreted LYZ (LYZ.NS, LYZ.S). The note with it: 6-day ENR differentiation compared with ENR+CD.
In experiment [3] the test system is organoids differentiated under ENR+CV, ENR+CD, or ENR. Description: Western blotting for LYZ in organoids. The note with it: six days in ENR+CV. The source says: ISC-enriched organoids cultured in 3D Matrigel with ENRCV media were passaged to 24-well plate in 3D Matrigel with ENRCV. At day zero, media were replaced to ENR or ENRCD with or without indicated compounds, and media were replaced every other day. At day six, cells were harvested from Matrigel by mechanical disruption and suspended in basal media. Cell pellets were lysed with Pierce® IP lysis buffer (ThermoFisher, 87787) containing Halt™ Protease Inhibitor Cocktail, EDTA-Free (ThermoFisher, 87785) after 3-minute centrifuge at 300×g at 4° C. Cell extracts were resolved by NuPAGE® SDS-PAGE Gel system (ThermoFisher) and electroblotted onto polyvinylidene difluoride membranes using Criterion™ Blotter (Biorad). The membranes were blocked with 2% Blotting-Grade Blocker (Biorad, 1706404) in TBS-T (50 mM Tris-HCl, 150 mM NaCl, and 0.1% Tween 20, pH 8.0) and then probed with appropriate antibodies. Detection was performed using ECL Select™ Western Blotting Detection Reagent (Amersham, 45-000-999) and ImageQuant LAS4000 (GE Healthcare).

For experiment [4], the system named is ENR+CD and ENR organoid populations. Description: Population RNA-seq of organoids. The note with it: 3 days of treatment, all media conditions controlled, FDR<0.01. From the text:
To further assess the potential interaction of Wnt agonist CHIR99021 (C) and Notch inhibitor DAPT (D) with XPO1 inhibitors, we carried out an experiment where we assessed bulk organoid population transcriptomes (with RNA-seq) from multiple variations on growth media, XPO1 inhibitor, and duration of treatment (FIG. 12A). To characterize the resulting cell phenotypes, we used aggregate scores of geneset enrichment (based on module scoring as implemented in^7) from the in vivo Paneth and related enteroendocrine cell populations (genesets taken from^6). We see that again for both ENR+CD treated (FIG. 12B) and ENR treated (FIG. 12C) organoid populations, XPO1 inhibition drives enrichment in Paneth cell defining genes, principally at 3 days of treatment. […]
Population RNA-seq was performed using a derivative of the Smart-Seq2 protocol for single cells^1,2. […] Libraries were pooled post-Nextera and cleaned using Agencourt AMPure SPRI beads with successive 0.7× and 0.8× ratio SPRIs and sequenced with an Illumina 75 Cycle NextSeq500/550v2 kit (Illumina FC-404-2005) with loading density at 2.2 pM, with paired end 35 cycle read structure. Samples were sequenced at an average read depth of 8.44 million reads per sample and a total of 96 samples. […]

Regarding `O=C(/C=C\n1cnc(-c2cc(C(F)(F)F)cc(C(F)(F)F)c2)n1)NNc1cnccn1` [KPT-330], in experiment [1], the “mature PC (CD24-mid & LYZ+) population relative to control” value was “statistically significant increase (adj. p<0.01)” and the “secretory precursor (CD24-hi) population relative to control” value is listed as “trend to a smaller population”. Moreover, the “mean fold change in LYZ.NS/ATP and LYZ.S/ATP (LYZ secretion per cell) in ENR” value in experiment [2] is “reasonable increases in LYZ secretion per cell in ENR”. Further, the “LYZ abundance on a per-mass protein normalized basis (western blot)” value in experiment [3] is “appreciably increase LYZ abundance”. Besides, in experiment [4], the “identity of the majority of significantly up-regulated genes relative to no treatment (DESeq2)” value is recorded as “known Paneth cell lineage-defining genes”.

Values taken from patent US20200237852A1, “Small Molecule Enhancers of Paneth Cell Function and Differentiation” (Massachusetts Institute of Technology, priority 2019, published 2020).
